The source of these data is US20210002725A1, “METHODS FOR THE DIAGNOSIS OF METABOLIC DISORDERS USING EPIMETABOLIC SHIFTERS, MULTIDIMENSIONAL INTRACELLULAR MOLECULES, OR ENVIRONMENTAL INFLUENCES” (Berg LLC, priority 2009, published 2021).

Test [1] concerns Lactate Dehydrogenase (LDH). In words: Western blot of Lactate Dehydrogenase levels in cells treated with Coenzyme Q10. In kind it is cell-based, human. As to conditions: HepG2, 5 g, 24 h, 50 μM. The procedure:
The samples were processed and run on a 4-12% Bis-Tris Novex NuPAGE gel as described above. The gels were run, transferred and stained essentially as described above.
After transfer each blot was dried for 15-20 minutes, activated with methanol for 5 seconds, washed with water for 5 minutes, and TBST for 15 minutes. The blots were blocked for 1 hour with 5% blocking reagent in TBS-T at room temperature and then washed 3 times with TBS-T (1×-15′; 2×5′ each) and probed with the primary antibody for Lactate Dehydrogenase (abcam ab2101; polyclonal) in 5% BSA (at 1:1000 dilutions) by incubation overnight at 4 deg C. with shaking. After the overnight incubation with primary antibody for Lactate Dehydrogenase, the blots were washed 3 times with TBS-T (1×-15′; 2×5′ each) and probed with the secondary antibody (rabbit antigoat; 1:10,000 dilution) for 1 h at room temperature. After 1 h of incubation with secondary antibodies, the blots were washed 3 times with TBS-T (1×-15′; 2×5′ each) and then incubated with ECF reagent for 5 mins and then each blot scanned with 5100 Fuji Laser scanner at 25 uM resolution, 16 bit, green laser, at 400V and at 500 V. […]
The levels of LDH and PDH were determined by probing the blots successively with primary antibodies for LDH and PDH, essentially as described above. […]

A further test deals with Hif1 alpha. In words: Western blot of Hif1 alpha levels in cells treated with Coenzyme Q10. The format is cell-based, human. As to conditions: whole cell lysates of normal cells. On the procedure: The Actin blots were stripped by incubating for 30 minutes with methanol, followed by two 10 minute washes with TBS-T, then 30 minutes of incubation with Stripping buffer at 50 deg C., and followed by two washes with 100 ml or more of TBS-T for 30′ each. The blots were scanned in laser scanner to check for complete stripping. The blots were activated with methanol for 5 seconds, washed with water for 5 minutes, and TBST for 15 minutes. The blots were blocked for 1 hour with 5% blocking reagent in TBS-T at room temperature and then washed 3 times with TBS-T (1×-15′; 2×5′ each) and probed with the primary antibody for Hif 1 alpha, Caspase 3 or PDHB in 5% BSA (at 1:200 by incubation overnight at 4 deg C. with gentle shaking. The primary antibody for Hif 1 alpha (Abcam ab2185; antirabbit) was at 1:500 dilution in 5% BSA. The primary antibody for Caspase 3 (Santacruz sc7272; antirabbit) was at 1:200 dilution in 5% BSA. The primary antibody for Pyruvate Dehydrogenase beta (PDHB) (Novus Biologicals H00005162-M03; antimouse) was at 1:500 dilution in 5% BSA. After incubation with primary antibodies, the membranes were washed 3 times with TBS-T (1×-15′; 2×5′ each) and probed with the secondary antibody (PDHB antimouse; Hif 1a and Caspase 3 antirabbit; 1:10,000 dilution) for 1 h at room temperature. […]

Consider `COC1=C(OC)C(=O)C(C/C=C(\C)CC/C=C(\C)CC/C=C(\C)CC/C=C(\C)CC/C=C(\C)CC/C=C(\C)CC/C=C(\C)CC/C=C(\C)CC/C=C(\C)CCC=C(C)C)=C(C)C1=O` [Q10, Coenzyme Q10], for which the “Lactate Dehydrogenase Normalized Volume” value in test [1] was 7900. Besides, in the test with Hif1 alpha, the Hif1a lower band result is recorded as “showed a decrease”.
